In US5416076A, “S-adenosyl methionine decarboxylase inhibitors” (Merrell Dow Pharmaceuticals Inc., priority 1989, dated 1995):

Tested on: Trypanosoma brucei
Experiment: Treatment of Trypanosoma Brucei-infected mice
Type: in vivo, T. brucei (EATRO 110) in mice (CD-1, males)
Conditions: for Mice cured/Total: cured = surviving 30 days after all controls dead
Text: Illustrative of the effects of a compound of this invention (i.e., cis-5'-deoxy-5'-(4-amino-2-butenyl )methylaminoadenosine, identified below as MDL Compound) for the treatment of African Trypanosomiasis is an assay using Trypanosoma brucei-infected mice, as follows:
(a) includes those animals that died.
(b) MDL Compound was given intraperitoneally three times per day (8:30
a.m., 12:30 p.m. and 4:30 p.m,) for three consecutive days.
(c) Eflornithine was given in drinking water for three days.
Mice (20-22 g, CD-1, males) were infected with 2.5×10^5 T. brucei (EATRO 110) by intraperitoneal injection. Drug treatment commenced 24 h after infection. Mice surviving for 30 days after all controls were dead were considered cured. This method for drug testing is that of Bacchi et al. (1980) Science 210: 332-334, and successfully predicted the utility of eflornithine in human trypanosomiasis.

| Compound | Mice cured/Total (2% in drinking water for three days) | Mice cured/Total (dose 10 (unit not given), intraperitoneally three times per day for three consecutive days) | Mice cured/Total (dose 20 (unit not given), intraperitoneally three times per day for three consecutive days) | Mice cured/Total (dose 50 (unit not given), intraperitoneally three times per day for three consecutive days) | Days of Survival (includes those animals that died) (dose 50 (unit not given), intraperitoneally three times per day for three consecutive days, per animal) |
| --- | --- | --- | --- | --- | --- |
| NCCCC(N)(C(=O)O)C(F)F (centres unmarked) [Eflornithine, reference compound] | 3/5 | – | – | – | – |
| CN(C/C=C\CN)C[C@H]1O[C@@H](n2cnc3c(N)ncnc32)[C@H](O)[C@@H]1O [MDL Compound, CIS-5'-DEOXY-5'(4-AMINO-2-BUTENYL)METHYLAMINOADENOSINE] | – | 2/5 | 3/5 | 4/5 | 12 days |
